Test results taken from ChEMBL document CHEMBL5532679, “Discovery and Characterization of RGH-122, a Potent, Selective, and Orally Bioavailable V1a Receptor Antagonist” (J Med Chem, 2024).

Tests used:
animal or person [1] = conditions: Mus musculus, NMRI, po, read-out: INH
[2] = Efflux ratio of apparent permeability across basolateral to apical side over apical to basolateral side in vinblastine treated human Caco-2 cells at 1 to 10 uM incubated for 15 to 60 hrs by HPLC analysis
in vitro [3] = conditions: CD-1, mouse, liver microsomes
in vitro [4] = conditions: human
[5] = Apparent permeability of compound across apical to basal side in vinblastine treated human Caco-2 cells at 1 to 10 uM incubated for 15 to 60 mins by HPLC analysis
in vitro [6] = conditions: Wistar, rat, microsomes
in vitro [7] = conditions: NMRI, mouse, microsomes
Vasopressin V1a receptor [8] = biological target: T1, Vasopressin V1a receptor (Homo sapiens, UniProt P37288)
T1 sequence (P37288 whole entry): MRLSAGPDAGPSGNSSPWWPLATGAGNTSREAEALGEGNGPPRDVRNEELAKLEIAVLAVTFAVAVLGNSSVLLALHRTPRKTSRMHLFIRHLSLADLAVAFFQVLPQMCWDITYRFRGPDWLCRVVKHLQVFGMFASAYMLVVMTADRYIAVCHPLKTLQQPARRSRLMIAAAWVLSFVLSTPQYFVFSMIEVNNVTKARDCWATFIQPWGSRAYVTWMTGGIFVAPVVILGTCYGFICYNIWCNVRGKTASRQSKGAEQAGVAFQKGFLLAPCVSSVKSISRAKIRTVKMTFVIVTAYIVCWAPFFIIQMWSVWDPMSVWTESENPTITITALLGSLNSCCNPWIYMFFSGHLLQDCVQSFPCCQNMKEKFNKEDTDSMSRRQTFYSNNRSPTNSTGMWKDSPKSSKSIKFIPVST
Description: Displacement of [3H]vasopressin from human V1A receptor assessed as inhibition constant by Cheng-Prusoff equation analysis

Vasopressin V1a receptor [9] = biological target: T1, Vasopressin V1a receptor; remark: listed apart in the source
Description: Antagonist activity at human V1A receptor expressed in human 1321N1 cells assessed as Ca2+ mobilization incubated for 15 mins by FLIPR calcium 5 assay

[10] = biological target: Voltage-gated inwardly rectifying potassium channel KCNH2 (Homo sapiens, UniProt Q12809)
Chain of Voltage-gated inwardly rectifying potassium channel KCNH2 (Q12809 whole entry): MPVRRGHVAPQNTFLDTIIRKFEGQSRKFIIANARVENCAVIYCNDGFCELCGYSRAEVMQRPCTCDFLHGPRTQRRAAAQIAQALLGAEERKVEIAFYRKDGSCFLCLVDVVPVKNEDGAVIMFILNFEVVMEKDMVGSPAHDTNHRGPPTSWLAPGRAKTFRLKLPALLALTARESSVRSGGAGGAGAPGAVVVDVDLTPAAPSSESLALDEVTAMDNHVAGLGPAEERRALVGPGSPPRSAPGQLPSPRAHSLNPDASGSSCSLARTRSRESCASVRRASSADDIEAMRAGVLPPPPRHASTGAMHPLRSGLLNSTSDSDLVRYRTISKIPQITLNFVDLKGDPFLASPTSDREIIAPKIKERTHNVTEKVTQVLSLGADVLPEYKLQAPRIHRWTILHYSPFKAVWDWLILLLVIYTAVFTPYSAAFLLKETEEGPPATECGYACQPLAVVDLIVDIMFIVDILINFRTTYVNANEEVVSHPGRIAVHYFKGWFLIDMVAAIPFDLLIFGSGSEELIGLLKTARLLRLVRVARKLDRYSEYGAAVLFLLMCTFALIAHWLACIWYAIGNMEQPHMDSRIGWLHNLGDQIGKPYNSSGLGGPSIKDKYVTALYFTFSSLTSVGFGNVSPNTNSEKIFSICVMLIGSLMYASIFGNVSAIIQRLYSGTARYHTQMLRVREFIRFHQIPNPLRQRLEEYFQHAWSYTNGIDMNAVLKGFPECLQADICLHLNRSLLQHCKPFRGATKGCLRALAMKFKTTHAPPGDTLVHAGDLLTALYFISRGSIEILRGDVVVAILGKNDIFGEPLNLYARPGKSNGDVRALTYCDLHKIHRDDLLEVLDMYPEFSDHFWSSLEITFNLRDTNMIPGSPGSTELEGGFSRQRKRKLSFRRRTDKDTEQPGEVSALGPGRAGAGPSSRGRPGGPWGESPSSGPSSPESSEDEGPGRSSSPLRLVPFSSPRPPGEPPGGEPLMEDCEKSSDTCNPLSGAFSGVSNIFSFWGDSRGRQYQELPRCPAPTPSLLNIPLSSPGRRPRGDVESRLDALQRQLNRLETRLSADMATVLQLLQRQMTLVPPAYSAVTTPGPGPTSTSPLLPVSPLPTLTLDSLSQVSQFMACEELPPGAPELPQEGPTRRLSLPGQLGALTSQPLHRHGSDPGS
Description: Inhibition of hERG expressed in CHO cells at -80 mV holding potential incubated for 7 to 10 mins by automated patch clamp method

animal or person [11] = conditions: Mus musculus, NMRI, po, read-out: INH; remark: listed apart in the source

Row | efflux ratio at 10 µM [2] | microsomal CLint at 1 µM (in vitro [4]; microsomes) [µL/min/mg] | Papp A→B at 10 µM [5] [×10⁻⁶ cm/s] | microsomal CLint at 1 µM (in vitro [6]) [µL/min/mg] | microsomal CLint at 1 µM (in vitro [7]) [µL/min/mg] | Compound | other results
1 | – | – | – | – | – | CC(C)NC1Cc2cc(Br)ccc2-n2c(nnc2[C@H]2CC[C@H](Oc3ccccn3)CC2)C1 (stereo not given in full) | inhibition in vivo at 3 mg/kg (animal or person [1]): 64%
2 | 14.6 | 1 | 4.3 | 1 | – | O=C(N[C@@H]1Cc2cc(Cl)ccc2-n2c(nnc2[C@H]2CC[C@H](Oc3ccccn3)CC2)C1)C1CC1 | microsomal CLint at 1 µM (in vitro [3]): 22 µL/min/mg
3 | 29 | – | 1.3 | 3 | 3 | O=C([C@H]1CC[C@H](c2nnc3n2-c2ccc(Cl)cc2CC2(C3)OCCO2)CC1)N1CCOCC1 | –
4 | 7.5 | 11 | 8.6 | 3 | 6 | CN1CCN(CC2Cc3cc(Cl)ccc3-n3c(nnc3[C@H]3CC[C@H](Oc4ccccn4)CC3)C2)CC1 (stereo not given in full) | Ki (Vasopressin V1a receptor [8]): 0.8 nM; IC50 (Vasopressin V1a receptor [9]): 7.1 nM
5 | – | – | – | – | – | FC[C@@H]1Cc2cc(Cl)ccc2-n2c(nnc2[C@H]2CC[C@H](Oc3ccccn3)CC2)C1 | IC50 [10]: 12000 nM
6 | 118 | 13 | 0.5 | 15 | – | N#CCC(=O)N[C@@H]1Cc2cc(Cl)ccc2-n2c(nnc2[C@H]2CC[C@H](Oc3ccccn3)CC2)C1 | microsomal CLint at 1 µM (in vitro [3]): 19 µL/min/mg
7 | – | – | – | – | – | CC(C)NC1Cc2cc(C#N)ccc2-n2c(nnc2[C@H]2CC[C@H](Oc3ccccn3)CC2)C1 (stereo not given in full) | inhibition in vivo at 3 mg/kg (animal or person [1]): 56%
8 | – | 48 | – | 25 | 35 | NCC1Cc2cc(Cl)ccc2-n2c(nnc2[C@H]2CC[C@H](Oc3ccccn3)CC2)C1 (stereo not given in full) | Ki (Vasopressin V1a receptor [8]): 3.1 nM; IC50 (Vasopressin V1a receptor [9]): 15 nM
9 | – | – | – | – | – | OCC1Cc2cc(Cl)ccc2-n2c(nnc2[C@H]2CC[C@H](Oc3ccccn3)CC2)C1 (stereo not given in full) | IC50 [10]: 21400 nM
10 | – | – | – | – | – | CC(C)NC1Cc2cc(F)ccc2-n2c(nnc2[C@H]2CC[C@H](Oc3ccccn3)CC2)C1 (stereo not given in full) | inhibition in vivo at 3 mg/kg (animal or person [1]): 58%
11 | – | – | – | – | – | CC(C)NC1Cc2ccccc2-n2c(nnc2[C@H]2CC[C@H](Oc3ccccn3)CC2)C1 (stereo not given in full) | Ki (Vasopressin V1a receptor [8]): 5.6 nM; inhibition in vivo at 3 mg/kg (animal or person [1]): 18%
12 | – | 20 | – | 6 | 8 | CC(C)NCC1Cc2cc(Cl)ccc2-n2c(nnc2[C@H]2CC[C@H](Oc3ccccn3)CC2)C1 (stereo not given in full) | Ki (Vasopressin V1a receptor [8]): 2.8 nM; IC50 (Vasopressin V1a receptor [9]): 55 nM
13 | 44 | 4 | 2.6 | 36 | 11 | N[C@H]1Cc2cc(Cl)ccc2-n2c(nnc2[C@H]2CC[C@H](Oc3ccccn3)CC2)C1 | –
14 | – | 34 | – | 32 | – | O=C(N[C@@H]1Cc2cc(Cl)ccc2-n2c(nnc2[C@H]2CC[C@H](Oc3ccccn3)CC2)C1)C1CCC(F)(F)CC1 | microsomal CLint at 1 µM (in vitro [3]): 154 µL/min/mg
15 | 3.5 | – | 23 | 56 | 5 | O[C@@H]1Cc2cc(Cl)ccc2-n2c(nnc2[C@H]2CC[C@H](Oc3ccccn3)CC2)C1 | inhibition in vivo at 3 mg/kg (animal or person [1]): 75%; inhibition in vivo at 10 mg/kg (animal or person [11]): 84%; IC50 [10]: > 30000 nM
16 | – | 42 | – | 47 | 39 | CN(C)CC1Cc2cc(Cl)ccc2-n2c(nnc2[C@H]2CC[C@H](Oc3ccccn3)CC2)C1 (stereo not given in full) | Ki (Vasopressin V1a receptor [8]): 0.5 nM; IC50 (Vasopressin V1a receptor [9]): 4.7 nM
17 | 1.4 | 21 | 24 | 15 | 16 | CCN[C@@H]1Cc2cc(Cl)ccc2-n2c(nnc2[C@H]2CC[C@H](Oc3ccccn3)CC2)C1 | IC50 [10]: 3500 nM
18 | 0.8 | – | 7 | 15 | 27 | Clc1ccc2c(c1)CC1(Cc3nnc([C@H]4CC[C@H](Oc5ccccn5)CC4)n3-2)OCCCO1 | inhibition in vivo at 3 mg/kg (animal or person [1]): 69%; inhibition in vivo at 10 mg/kg (animal or person [11]): 79%
19 | – | – | – | – | – | CC(C)NC1Cc2cc(Cl)ccc2-n2c(nnc2[C@H]2CC[C@H](Oc3ccccn3)CC2)C1 (mixture of isomers) | IC50 [10]: 3700 nM
20 | – | – | – | – | – | NC1CCc2cc(Cl)ccc2-n2c1nnc2[C@H]1CC[C@H](Oc2ccccn2)CC1 (stereo not given in full) | Ki (Vasopressin V1a receptor [8]): 8 nM; IC50 (Vasopressin V1a receptor [9]): 42 nM
21 | – | – | 20 | 18 | 7 | O[C@H]1Cc2cc(Cl)ccc2-n2c(nnc2[C@H]2CC[C@H](Oc3ccccn3)CC2)C1 | inhibition in vivo at 3 mg/kg (animal or person [1]): 84%; inhibition in vivo at 10 mg/kg (animal or person [11]): 92%; IC50 [10]: > 30000 nM
22 | – | – | – | – | – | OC[C@@H]1Cc2cc(Cl)ccc2-n2c(nnc2[C@H]2CC[C@H](Oc3ccccn3)CC2)C1 | IC50 [10]: 19000 nM
23 | – | – | – | – | – | FC[C@H]1Cc2cc(Cl)ccc2-n2c(nnc2[C@H]2CC[C@H](Oc3ccccn3)CC2)C1 | IC50 [10]: 13000 nM
24 | – | – | – | – | – | FC(F)(F)c1ccc2c(c1)CC1(Cc3nnc([C@H]4CC[C@H](Oc5ccccn5)CC4)n3-2)OCCO1 | inhibition in vivo at 10 mg/kg (animal or person [11]): 76%

Row | efflux ratio at 10 µM [2] | microsomal CLint at 1 µM (in vitro [4]; microsomes) [µL/min/mg] | Papp A→B at 10 µM [5] [×10⁻⁶ cm/s] | microsomal CLint at 1 µM (in vitro [6]) [µL/min/mg] | microsomal CLint at 1 µM (in vitro [7]) [µL/min/mg] | Compound | other results
25 | – | – | – | – | – | N#Cc1ccc2c(c1)CC1(Cc3nnc([C@H]4CC[C@H](Oc5ccccn5)CC4)n3-2)OCCO1 | inhibition in vivo at 10 mg/kg (animal or person [11]): 69%
26 | – | 15 | – | 29 | – | CN(C)CCC(=O)N[C@@H]1Cc2cc(Cl)ccc2-n2c(nnc2[C@H]2CC[C@H](Oc3ccccn3)CC2)C1 | microsomal CLint at 1 µM (in vitro [3]): 96 µL/min/mg
27 | 29 | 2 | 3 | 11 | 14 | NC1Cc2cc(Cl)ccc2-n2c(nnc2[C@H]2CC[C@H](Oc3ccccn3)CC2)C1 (mixture of isomers) | –
28 | – | 134 | – | 145 | 101 | Clc1ccc2c(c1)CC(CN1CCOCC1)Cc1nnc([C@H]3CC[C@H](Oc4ccccn4)CC3)n1-2 (stereo not given in full) | Ki (Vasopressin V1a receptor [8]): 0.4 nM; IC50 (Vasopressin V1a receptor [9]): 2.1 nM
29 | – | – | – | – | – | Brc1ccc2c(c1)CC1(Cc3nnc([C@H]4CC[C@H](Oc5ccccn5)CC4)n3-2)OCCO1 | inhibition in vivo at 10 mg/kg (animal or person [11]): 99%
30 | – | 26 | – | 26 | 37 | FC1(F)CCC(NC2Cc3cc(Cl)ccc3-n3c(nnc3[C@H]3CC[C@H](Oc4ccccn4)CC3)C2)CC1 (stereo not given in full) | –
31 | – | – | – | – | – | Fc1ccc2c(c1)CC1(Cc3nnc([C@H]4CC[C@H](Oc5ccccn5)CC4)n3-2)OCCO1 | inhibition in vivo at 10 mg/kg (animal or person [11]): 49%
32 | – | 0.2 | – | 6 | 2 | CN(C)CC(=O)NC1Cc2cc(Cl)ccc2-n2c(nnc2[C@H]2CC[C@H](Oc3ccccn3)CC2)C1 (mixture of isomers) | –
33 | 7.1 | 14 | 8.1 | 8 | 6 | Clc1ccc2c(c1)CC(CNC1CCOCC1)Cc1nnc([C@H]3CC[C@H](Oc4ccccn4)CC3)n1-2 (stereo not given in full) | Ki (Vasopressin V1a receptor [8]): 2.3 nM; IC50 (Vasopressin V1a receptor [9]): 15 nM
34 | – | – | – | – | – | CC(C)N[C@H]1Cc2cc(Cl)ccc2-n2c(nnc2[C@H]2CC[C@H](Oc3ccccn3)CC2)C1 | IC50 [10]: 3800 nM
35 | 6.8 | – | 9.3 | – | – | CNC1CCc2nnc([C@H]3CC[C@H](Oc4ccccn4)CC3)n2-c2ccc(Cl)cc21 (stereo not given in full) | Ki (Vasopressin V1a receptor [8]): 1.3 nM; IC50 (Vasopressin V1a receptor [9]): 6.9 nM
36 | – | 49 | – | 77 | – | CC(C)(C)C(=O)N[C@@H]1Cc2cc(Cl)ccc2-n2c(nnc2[C@H]2CC[C@H](Oc3ccccn3)CC2)C1 | microsomal CLint at 1 µM (in vitro [3]): 242 µL/min/mg
37 | 1 | – | 42 | 12 | 16 | CO[C@]1(C)CC[C@@H](c2nnc3n2-c2ccc(Cl)cc2CC2(C3)OCCO2)CC1 | inhibition in vivo at 3 mg/kg (animal or person [1]): 0%; inhibition in vivo at 10 mg/kg (animal or person [11]): 41%; IC50 [10]: > 30000 nM
38 | 35 | 5 | 2.8 | 7 | 9 | N[C@@H]1Cc2cc(Cl)ccc2-n2c(nnc2[C@H]2CC[C@H](Oc3ccccn3)CC2)C1 | IC50 [10]: 16700 nM
39 | – | 157 | – | 86 | – | O=C(N[C@@H]1Cc2cc(Cl)ccc2-n2c(nnc2[C@H]2CC[C@H](Oc3ccccn3)CC2)C1)C1CCC1 | microsomal CLint at 1 µM (in vitro [3]): 91 µL/min/mg
40 | – | – | – | – | – | OC[C@H]1Cc2cc(Cl)ccc2-n2c(nnc2[C@H]2CC[C@H](Oc3ccccn3)CC2)C1 | IC50 [10]: 23000 nM
41 | 1.1 | 24 | 41 | 9 | 15 | Clc1ccc2c(c1)CC(NC1CCOCC1)Cc1nnc([C@H]3CC[C@H](Oc4ccccn4)CC3)n1-2 (stereo not given in full) | –
42 | – | – | – | – | – | c1ccc(O[C@H]2CC[C@H](c3nnc4n3-c3ccccc3CC3(C4)OCCO3)CC2)nc1 | inhibition in vivo at 10 mg/kg (animal or person [11]): 49%
43 | – | – | – | – | – | CC(C)N[C@@H]1Cc2cc(Cl)ccc2-n2c(nnc2[C@H]2CC[C@H](Oc3ccccn3)CC2)C1 | IC50 [10]: 4000 nM
44 | 1.8 | 12 | 40 | 19 | 24 | CNC1Cc2cc(Cl)ccc2-n2c(nnc2[C@H]2CC[C@H](Oc3ccccn3)CC2)C1 (stereo not given in full) | –
45 | – | – | – | – | – | Clc1ccc2c(c1)CCCc1nnc([C@H]3CC[C@H](Oc4ccccn4)CC3)n1-2 | microsomal CLint at 1 µM (in vitro [4]; liver microsomes): 29 µL/min/mg; inhibition in vivo at 10 mg/kg (animal or person [11]): 42%
46 | 4.4 | 16 | 24 | 17 | 14 | Clc1ccc2c(c1)CC(NC1COC1)Cc1nnc([C@H]3CC[C@H](Oc4ccccn4)CC3)n1-2 (stereo not given in full) | –
47 | 1.3 | 34 | 23 | 36 | 37 | CN(C)C1Cc2cc(Cl)ccc2-n2c(nnc2[C@H]2CC[C@H](Oc3ccccn3)CC2)C1 (stereo not given in full) | –
